“And” between values parts separate entries of the source, which are not always exact repeats. Identical values can stand only once.
Tested on: 786-0 complex spheroids with HUVEC/MSC, growth % test/control
Assay: Anticancer human tumor 786-0 cell line growth inhibition [AhR];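 note: compound exposure lasted seven days before the read-out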
Conditions: for viability, T/C: stronger effect = lower value
From the text: Multicellular complex tumor spheroid response to aryl hydrocarbon receptor antagonists in combination with a variety of drugs and investigational agents in selected tumor cell lines
The current study was undertaken to assess response to aryl hydrocarbon receptor antagonists in combination with standard-of-care drugs and investigational agents in solid tumor complex spheroid models. Complex spheroids include a stromal component modeled by human endothelial cells (HUVEC) and fibroblasts modeled by human mesenchymal stem cells (MSCs). The concentration ranges selected for each drug and investigational agent were based upon clinically achievable concentrations if the clinical Cmax of the agent was known.
Compounds. The drugs and investigational agents: BAY 2416964 (NSC825713), GNF351 (NSC835774), CH-223191 (NSC835775), CPI-455 (NSC825282), aza-TdCyd (NSC777586), decitabine (NSC127716), belinostat (NSC758774), entinostat (NSC756642), pevonedistat (NSC761192), tazemetostat (NSC777109), talazoparib (NSC765396), olaparib (NSC753686), selinexor (NSC780203), nedisertib (M3814, NSC802822), bortezomib (NSC756655), venetoclax (NSC766270), doxorubicin (NSC123127), elimusertib (BAY189344, NSC800525), ceralasertib (AZD6738, NSC777638), TAK-243 (NSC785004), alisertib (NSC759677), etoposide (NSC141540), topotecan (NSC609699), eribulin (NSC707389), gemcitabine (NSC613327), carboplatin (NSC241240), cisplatin (NSC119875), and SN-38 (NSC673596) were obtained from the National Cancer Institute (NCI) Developmental Therapeutics Program Chemical Repository (32). The FDA-approved anticancer drug set is available from the Developmental Therapeutics Program at https://dtp.cancer.gov/organization/dscb/obtaining/available plates.htm. […] The stock solutions were prepared in dimethyl sulfoxide (DMSO, Sigma-Aldrich, St. Louis, MO, cat. D2650), except for the platinum compounds which were prepared in saline (Quality Biological, Gaithersburg, MD, cat. 114-055-101), at 800-fold the tested concentration and stored at -70 degrees C prior to their use. All drugs and investigational agents were tested over a range starting from a high concentration at or near the clinical Cmax and decreasing in half-log increments. If the clinical Cmax for an agent had not been determined, the highest concentration tested was 10 microM (Table 1).
Cell Culture. All cells were maintained in an incubator at 37 degrees C and 5% CO2 with 95% humidity. The PDC lines were cultured according to standard operating procedures established by the NCI PDMR (https://pdmr.cancer.gov). Briefly, all PDCs were thawed and cultured in Matrigel-coated flasks prepared with a working solution of 1X Ham's F-12 nutrient mix, without supplementation (Invitrogen, Waltham, MA, cat. 11765054), 100 U/mL penicillin-streptomycin (Invitrogen, cat. 15140122), and 2.5% Matrigel (Corning Inc., Corning, NY, cat. 354248) for the first three passages. All PDCs were cultured in complete DMEM/F-12 media containing advanced DMEM/F-12 (Invitrogen, cat. 12634028), 4.9% defined fetal bovine serum, heat inactivated (HyClone Laboratories Inc., Logan, UT, cat. SH30070.03HI), 389 ng/mL hydrocortisone (Sigma-Aldrich, cat. H4001), 9.7 ng/mL human EGF recombinant protein (Invitrogen, cat. PHG0313), 23.4 microg/mL adenine (Sigma-Aldrich, cat. A2786), 97.3 U/mL penicillin-streptomycin (Invitrogen, cat. 15140122), 1.9 mM L-glutamine (Invitrogen, cat. 25030081), and 9.7 microM Y-27632 dihydrochloride (Tocris Bioscience, Bristol, United Kingdom, cat. 1254). The PDCs were cultured in complete DMEM/F12 media without 10 microM Y-27632 dihydrochloride for at least two passages prior to the screen. The established cell lines NCI-H1341 and […] were cultured in DMEM/F-12, HEPES (Invitrogen, cat. 11330032), 5% defined fetal bovine serum (HyClone Laboratories Inc., cat. SH30070.03), ITS premix universal culture supplement [insulin (5 microg/mL), transferrin (5 microg/mL), and selenious acid (5 ng/mL)] […]

COc1cccc2c1C(=O)c1c(O)c3c(c(O)c1C2=O)CC(O)(C(=O)CO)CC3OC1CC(N)C(O)C(C)O1 (configuration not stated)
viability, T/C (compound 0.0316 µM): 58.8% and 70% and 62%
viability, T/C (compound 0.1 µM): 51.9% and 65.6% and 44.9%
viability, T/C (compound 0.316 µM): 23.9% and 30.9% and 18.1%
viability, T/C (compound 1 µM): 7% and 10.7% and 3.15%
viability, T/C (compound 3.16 µM): 0.81% and 3.57% and 0.53%
viability, T/C (compound 10 µM): 0.36% and 3.07% and 0.69%
IC50 (curve of compound): 0.104 µM and 0.166 µM and 0.0718 µM

Cc1ccccc1N=Nc1ccc(NC(=O)c2ccnn2C)c(C)c1
viability, T/C (compound 0.1 µM): 99.5% [middle of 20 runs]
viability, T/C (compound 0.316 µM): 99.1% [middle of 20 runs]
viability, T/C (compound 1 µM): 97.1% [middle of 20 runs]
IC50 (compound alone, run of 08/22/2022): > 10 µM

Cc1cncc(-c2nc(NCCc3c[nH]c4ccccc34)c3ncn(C(C)C)c3n2)c1
viability, T/C (compound 0.1 µM): 114% [middle of 20 runs]
viability, T/C (compound 10 µM): 11.6% [middle of 20 runs]
IC50 (compound alone, run of 08/16/2022): 5.18 µM [middle of 23 runs]

Cn1ncnc1C1c2n[nH]c(=O)c3cc(F)cc(c23)NC1c1ccc(F)cc1 (configuration not stated)
viability, T/C (compound 0.000316 µM): 108% (2×) and 92.5%
viability, T/C (compound 0.001 µM): 104% and 108% and 105%
viability, T/C (compound 0.00316 µM): 110% and 104% and 100%
viability, T/C (compound 0.01 µM): 109% and 104% and 101%
viability, T/C (compound 0.0316 µM): 99.5% and 112% and 97.7%
viability, T/C (compound 0.1 µM): 106% and 108% and 102%
IC50 (curve of compound): > 0.1 µM

NS(=O)(=O)OCC1CC(n2ccc3c(NC4CCc5ccccc54)ncnc32)CC1O (configuration not stated)
viability, T/C (compound 0.0316 µM): 86.6% and 84.8% and 82.7%
viability, T/C (compound 0.1 µM): 82.9% and 78.3% and 70.6%
viability, T/C (compound 0.316 µM): 65.9% and 65% and 60.3%
viability, T/C (compound 1 µM): 28.2% and 41.9% and 20.8%
viability, T/C (compound 3.16 µM): 5.17% and 8.09% and 3.13%
viability, T/C (compound 10 µM): 3.31% and 4.15% and 1.12%
IC50 (curve of compound): 0.512 µM and 0.63 µM and 0.411 µM

Nc1ccccc1NC(=O)c1ccc(CNC(=O)OCc2cccnc2)cc1
viability, T/C (compound 0.0316 µM): 105% and 107% and 108%
viability, T/C (compound 0.1 µM): 102% and 106% and 113%
viability, T/C (compound 0.316 µM): 106% and 102% and 111%
viability, T/C (compound 1 µM): 113% and 108% and 114%
viability, T/C (compound 3.16 µM): 73.9% and 96.8% and 86.7%
viability, T/C (compound 10 µM): 25.2% and 36.6% and 21.4%
IC50 (curve of compound): 5.56 µM and 7.78 µM and 6.04 µM

Nc1ccn(C2OC(CO)C(O)C2(F)F)c(=O)n1 (configuration not stated)
viability, T/C (compound 0.0316 µM): 5.98% and 8.17% and 4.44%
viability, T/C (compound 0.1 µM): 6.03% and 7.13% and 4.49%
viability, T/C (compound 0.316 µM): 4.27% and 6.35% and 5.28%
viability, T/C (compound 1 µM): 4.72% and 8.77% and 4.12%
viability, T/C (compound 3.16 µM): 4.82% and 7.86% and 5.09%
viability, T/C (compound 10 µM): 5.31% and 7.65% and 6.29%
IC50 (curve of compound): < 0.0316 µM

Nc1ncn(C2CC(O)C(CO)O2)c(=O)n1 (configuration not stated)
viability, T/C (compound 0.00316 µM): 99.4% and 101% and 104%
viability, T/C (compound 0.01 µM): 102% and 81.5% and 104%
viability, T/C (compound 0.0316 µM): 98.7% and 88.8% and 106%
viability, T/C (compound 0.1 µM): 96.5% and 86% and 94.8%
viability, T/C (compound 0.316 µM): 81.5% and 69.4% and 93.1%
viability, T/C (compound 1 µM): 85.2% and 54.8% and 84.6%
IC50 (curve of compound): > 1 µM

Nc1ncn(C2CC(O)C(CO)S2)c(=O)n1 (configuration not stated)
viability, T/C (compound 0.000949 µM): 109% and 99.9% and 112%
viability, T/C (compound 0.003 µM): 103% and 94.9% and 105%
viability, T/C (compound 0.00949 µM): 99.4% and 94.5% and 98.6%
viability, T/C (compound 0.03 µM): 102% and 107% and 100%
viability, T/C (compound 0.0949 µM): 73.2% and 96.8% and 89%
viability, T/C (compound 0.3 µM): 63.7% and 75.5% and 63.9%
IC50 (curve of compound): > 0.3 µM

O=C(C=Cc1cccc(S(=O)(=O)Nc2ccccc2)c1)NO
viability, T/C (compound 0.0316 µM): 104% and 102% and 97.4%
viability, T/C (compound 0.1 µM): 101% and 99.7% and 102%
viability, T/C (compound 0.316 µM): 101% and 103% and 102%
viability, T/C (compound 1 µM): 101% and 102% and 112%
viability, T/C (compound 3.16 µM): 75.2% and 93.4% and 85.6%
viability, T/C (compound 10 µM): 16.8% and 22.8% and 12.4%
IC50 (curve of compound): 5.2 µM and 6.41 µM and 5.53 µM

O=C(C=Cn1cnc(-c2cc(C(F)(F)F)cc(C(F)(F)F)c2)n1)NNc1cnccn1
viability, T/C (compound 0.00949 µM): 106% (2×) and 101%
viability, T/C (compound 0.03 µM): 110% and 108% and 112%
viability, T/C (compound 0.0949 µM): 109% and 107% and 105%
viability, T/C (compound 0.3 µM): 66.8% and 69.5% and 52.4%
viability, T/C (compound 0.949 µM): 47.5% and 48.1% and 38.7%
viability, T/C (compound 3 µM): 20.5% and 24.1% and 16.9%
IC50 (curve of compound): 0.7 µM and 0.745 µM and 0.356 µM

O=C(c1cc(Cc2n[nH]c(=O)c3ccccc23)ccc1F)N1CCN(C(=O)C2CC2)CC1
viability, T/C (compound 0.0316 µM): 111% and 97.5% and 96.3%
viability, T/C (compound 0.1 µM): 104% and 99.7% and 103%
viability, T/C (compound 0.316 µM): 112% and 103% and 102%
viability, T/C (compound 1 µM): 108% and 109% and 104%
viability, T/C (compound 3.16 µM): 109% and 107% and 104%
viability, T/C (compound 10 µM): 107% and 98% and 91.6%
IC50 (curve of compound): > 10 µM

— PubChem BioAssay AID1919003 (Molecular Pharmacology Branch, DTP, NCI, 2023)
